Test [1] deals with T1, SARS-CoV-2 PLpro (nsp3 1564–1878) (Severe acute respiratory syndrome coronavirus 2, UniProt P0DTD1). Kind of test: biochemical. Further details: FRET-quenched peptide (Pro3) cleavage by PLpro, 10 min pre-incubation, slope over 20 min, normalised to no-compound control. The conditions noted are these: low concentration screen, read-out: % of control remaining.
The target of test [2] is T1, SARS-CoV-2 PLpro (nsp3 1564–1878). Description: biochemical. Further details: FRET-quenched peptide (Pro3) cleavage by PLpro, 10 min pre-incubation, slope over 20 min, normalised to no-compound control. The conditions noted are these: high concentration screen, read-out: % of control remaining.

Structures are written as SMILES. Structures can show the parent of a compound that is named as a salt. Where two headings read alike, the source gives them in different places.

On to `Cc1cc(NC(=O)Nc2ccc(N(C)C)cc2)c2cc(F)cc(F)c2n1` [SB-408124 (Hydrochloride)], for which the remaining activity at 1.25 µM in test [1] (Well no.=6939) was found to be 99.4%. The remaining activity at 3.75 µM in test [2] (Well no.=6939) is 98.8%.

In the case of `CCOC(=O)/C=C/c1ccc(O)c(OC)c1` [Ferulic acid ethylester], in test [1] (Well no.=3853), the remaining activity at 1.25 µM was determined as 97.6%. For the same compound, the remaining activity at 3.75 µM in test [2] (Well no.=3853) was 103%.

For the compound `CCN(CC)CCOCCOC(=O)C1(c2ccccc2)CCCC1` [Carbetapentane citrate], the remaining activity at 1.25 µM in test [1] (Well no.=368) turned out to be 90.8%. Also, the remaining activity at 3.75 µM in test [2] (Well no.=368) was 92.5%.

With `OCCOCCN1CCN(C2=Nc3ccccc3Sc3ccccc32)CC1` [Quetiapine], the remaining activity at 1.25 µM in test [1] (Well no.=6616) is 98.1%. Besides, the remaining activity at 3.75 µM in test [2] (Well no.=6616) worked out at 98.6%.

Turning to `COc1ccccc1OCCNCC(O)COc1cccc2[nH]c3ccccc3c12` (stereo not drawn) [Carvedilol], the results for the remaining activity at 1.25 µM in test [1] (Well no.=1569), in test [1] (Well no.=4051) and in test [1] (Well no.=6702) were 99.6%, 103% and 97.7%, respectively. Further, the remaining activity at 3.75 µM in test [2] (Well no.=1569) stood at 103%; in test [2] (Well no.=4051), 104%; in test [2] (Well no.=6702), 97.8%.

Take `CC(CCC(=O)O)C(=O)O` (stereo not drawn) [2-Methylpentanedioic acid]: the remaining activity at 1.25 µM in test [1] (Well no.=6733) turned out to be 99.7%. In addition, in test [2] (Well no.=6733), the remaining activity at 3.75 µM is 105%.

As to `NS(=O)(=O)c1cc2c(cc1Cl)NC(C1CC3C=CC1C3)NS2(=O)=O` (stereo not drawn) [Cyclothiazide], the remaining activity at 1.25 µM in test [1] (Well no.=387) is 104%. The remaining activity at 3.75 µM in test [2] (Well no.=387) came out at 101%.

With `c1ccc(-c2ccccn2)nc1` [2,2'-Bipyridyl], the remaining activity at 1.25 µM in test [1] (Well no.=724) stood at 96.8%. Further, in test [2] (Well no.=724), the remaining activity at 3.75 µM worked out at 95.8%.

For `N=C(N)c1ccc(OCCCCCOc2ccc(C(=N)N)cc2)cc1` [Pentamidine isethionate], the remaining activity at 1.25 µM in test [1] (Well no.=996) amounted to 101%. In test [2] (Well no.=996), the remaining activity at 3.75 µM stood at 101%.

`COc1ccc(C(=O)NCc2ccc(OCCN(C)C)cc2)cc1OC` [Itopride]: the remaining activity at 1.25 µM in test [1] (Well no.=2226) amounted to 87.9%. Also, in test [2] (Well no.=2226), the remaining activity at 3.75 µM amounted to 88.2%.

Consider `Cc1noc(NS(=O)(=O)c2ccc(N)cc2)c1C` [Sulfisoxazole], for which the remaining activity at 1.25 µM in test [1] (Well no.=4664) came to 95.8%; in test [1] (Well no.=7548) it was 104%; in test [1] (Well no.=8283), 97.8%. Moreover, the remaining activity at 3.75 µM in test [2] (Well no.=4664) is 97.2%; in test [2] (Well no.=7548) it was 101%; in test [2] (Well no.=8283) it was 97.6%.

As for `CC1(C)C2CCC1(C(=O)O)C(=O)C2` (stereo not drawn) [Ketopinic acid], the remaining activity at 1.25 µM in test [1] (Well no.=3353) came out at 92.9%. Besides, the remaining activity at 3.75 µM in test [2] (Well no.=3353) is 96.9%.

On to `CC(=O)NS(=O)(=O)c1ccc(N)cc1` [Sulfacetamide Sodium], for which the remaining activity at 1.25 µM in test [1] (Well no.=4740) turned out to be 106%. Further, the remaining activity at 3.75 µM in test [2] (Well no.=4740) worked out at 106%.

Regarding `C/C=C(/C)C(=O)O[C@H]1C(C)=C2[C@H]([C@@H]1OC(=O)CCCCCCC)[C@@](C)(OC(C)=O)C[C@H](OC(=O)CCC)[C@@]1(O)[C@H]2OC(=O)[C@@]1(C)O` [Thapsigargin], the remaining activity at 1.25 µM in test [1] (Well no.=1470) was 98%; in test [1] (Well no.=3184) it was 107%. Besides, the results for the remaining activity at 3.75 µM in test [2] (Well no.=1470) and in test [2] (Well no.=3184) were 95.1% and 107%, respectively.

For `CCNC(=O)[C@H]1O[C@@H](n2cnc3c(N)nc(NCCc4ccc(CCC(=O)O)cc4)nc32)[C@H](O)[C@@H]1O` [CGS-21680 hydrochloride], the remaining activity at 1.25 µM in test [1] (Well no.=391) stood at 105%. The remaining activity at 3.75 µM in test [2] (Well no.=391) was 99.7%.

With `S=c1ccss1` [1,2-Dithiole-3-thione], the remaining activity at 1.25 µM in test [1] (Well no.=4139) was found to be 93.1%. For the same compound, the remaining activity at 3.75 µM in test [2] (Well no.=4139) was 94.1%.

As for `Nc1nc(F)nc2c1ncn2[C@@H]1O[C@H](COP(=O)(O)O)[C@@H](O)[C@@H]1O` [Fludarabine (phosphate)], the remaining activity at 1.25 µM in test [1] (Well no.=8046) was determined as 95.8%. For the same compound, in test [2] (Well no.=8046), the remaining activity at 3.75 µM came to 98%.

As to `CCCCc1nc(Cl)c(CO)n1Cc1ccc(-c2ccccc2-c2nnn[nH]2)cc1` [Losartan potassium], the remaining activity at 1.25 µM in test [1] (Well no.=2278) was found to be 94.3%. The remaining activity at 3.75 µM in test [2] (Well no.=2278) is 95.8%.

Consider `NC(=O)NS(=O)(=O)c1ccc(N)cc1` [Sulfacarbamide], for which the remaining activity at 1.25 µM in test [1] (Well no.=7502) was 96.2%. Moreover, in test [2] (Well no.=7502), the remaining activity at 3.75 µM was 98.8%.

As for `O=c1cc(N2CCOCC2)oc2c(-c3cccc4c3sc3ccccc34)cccc12` [NU7441 (KU-57788)], the remaining activity at 1.25 µM in test [1] (Well no.=4926) turned out to be 99.2%. In test [2] (Well no.=4926), the remaining activity at 3.75 µM was found to be 94.3%.

Consider `CN(C)C(=O)Oc1cccc([N+](C)(C)C)c1` [Neostigmine methyl sulfate], for which the remaining activity at 1.25 µM in test [1] (Well no.=6077) is 102%. In addition, the remaining activity at 3.75 µM in test [2] (Well no.=6077) amounted to 101%.

`CN(C)CCC=C1c2ccccc2CCc2ccccc21` [Amitriptyline.HCl]: the remaining activity at 1.25 µM in test [1] (Well no.=2122) is 102%. Moreover, the remaining activity at 3.75 µM in test [2] (Well no.=2122) stood at 104%.

Take `CC1(C)CCC2=C(O1)c1ccccc1C(=O)C2=O`: the values for the remaining activity at 1.25 µM in test [1] (Well no.=3375) and in test [1] (Well no.=3845) were 95.6% and 96.1%, respectively. Also, the remaining activity at 3.75 µM in test [2] (Well no.=3375) turned out to be 84.1%; in test [2] (Well no.=3845) it was 91.8%.

Regarding `C#C[C@]1(O)CC[C@H]2[C@@H]3CCC4=CC(=O)CCC4=C3C=C[C@@]21CC` [Gestrinone], in test [1] (Well no.=1792), the remaining activity at 1.25 µM stood at 101%. Moreover, the remaining activity at 3.75 µM in test [2] (Well no.=1792) was 99.3%.

With `O=c1[nH]c(=O)c2nc3ccccc3nc2[nH]1` [Alloxazine], in test [1] (Well no.=354), the remaining activity at 1.25 µM was determined as 90.3%. Also, in test [2] (Well no.=354), the remaining activity at 3.75 µM was 88.5%.

With `CCCOC(=O)c1cc(O)c(O)c(O)c1` [N-Propyl gallate], in test [1] (Well no.=3987), the remaining activity at 1.25 µM was determined as 104%. Further, the remaining activity at 3.75 µM in test [2] (Well no.=3987) is 102%.

Consider `COCCOc1ccc2c(c1)ncn2-c1ccc2cccc(N3CCC(N)CC3)c2n1` [CP 673451], for which the remaining activity at 1.25 µM in test [1] (Well no.=5285) came to 97.9%. Moreover, the remaining activity at 3.75 µM in test [2] (Well no.=5285) was 102%.

For the compound `Nc1nc2c(ncn2COCCO)c(=O)[nH]1` [Acycloguanosine], the remaining activity at 1.25 µM in test [1] (Well no.=2073) was determined as 103%. For the same compound, in test [2] (Well no.=2073), the remaining activity at 3.75 µM was 106%.

For `COc1ccc2c(OC)c3ccoc3nc2c1OC` [Skimmianine], the remaining activity at 1.25 µM in test [1] (Well no.=3201) stood at 112%. In addition, the remaining activity at 3.75 µM in test [2] (Well no.=3201) worked out at 109%.

On to `Cc1ccc([C@@H]2O[C@H](CO)[C@@H](O)[C@H](O)[C@H]2O)cc1Cc1ccc(-c2ccc(F)cc2)s1` [Canagliflozin], for which the remaining activity at 1.25 µM in test [1] (Well no.=5075) turned out to be 94.6%. In addition, in test [2] (Well no.=5075), the remaining activity at 3.75 µM amounted to 95.2%.
